Test results reported in US8679478B2, “Methods of lysosomal storage disease therapy” (Duke University, priority 2010, dated 2014).

Key:
Type in all cases: in vivo, mouse
GAA-KO mice [1] = assay: Rotarod testing, liver-targeted gene therapy plus clenbuterol
Procedure: FIG. 4A-4B depicts enhanced Rotarod performance and weight gain following liver-targeted gene therapy plus clenbuterol treatment. The GAA-KO mice (5 per group) were injected with AAV-LSPhGAA (2×10^10 vector particles/mouse). Vector treated mice were treated with clenbuterol or untreated. Non-vector treated GAA-KO mice were treated with clenbuterol or untreated to serve as controls. Mice were euthanized for tissue analysis 4 weeks after vector injection. […] Mean+/−standard deviation are shown. Statistically significant differences indicated (*=p<0.05; **=p<0.01).
For in vivo analysis of AAV vectors, stocks were administered intravenously (via the retroorbital sinus) in 3 month-old and 15 month-old GAA-KO mice, and to 3 month-old tolerant GAA-KO and DKO mice. Clenbuterol (30 μg/ml) was administered to groups of 3 month-old vector-injected and mock-injected male GAA-KO mice in drinking water for 28 days. At the indicated time points post-injection, tissue samples were obtained and processed as described below. All animal procedures were done in accordance with Duke University Institutional Animal Care and Use Committee-approved guidelines. GAA activity and glycogen content were analyzed essentially as described (Sun et al., Mol. Ther., 2005, 11:889-898; Sun et al., Mol. Ther., 2005, 11: 57-65). Rotarod testing was performed essentially as described (Sun, B. D. et al. 2005). […]

GAA-KO mice [2] = assay: Glycogen content in tissues, gene therapy plus clenbuterol; conditions: vector plus clenbuterol v. vector alone
Procedure: FIG. 5A-5B depicts enhanced efficacy from liver-targeted gene therapy plus clenbuterol treatment. The GAA-KO mice were injected with AAV-LSPhGAA (2×10^10 vector particles/mouse) or uninjected (5 per group). Vector-treated mice were treated with AAV-LSPhGAA and clenbuterol or with AAV-LSPhGAA alone. Untreated (mock) GAA-KO mice were used as controls. Mice were euthanized for tissue analysis 4 weeks after vector injection. […] Statistically significant differences indicated (*=p<0.05; **=p<0.01).
(§1) For in vivo analysis of AAV vectors, stocks were administered intravenously (via the retroorbital sinus) in 3 month-old and 15 month-old GAA-KO mice, and to 3 month-old tolerant GAA-KO and DKO mice. Clenbuterol (30 μg/ml) was administered to groups of 3 month-old vector-injected and mock-injected male GAA-KO mice in drinking water for 28 days. At the indicated time points post-injection, tissue samples were obtained and processed as described below. All animal procedures were done in accordance with Duke University Institutional Animal Care and Use Committee-approved guidelines. GAA activity and glycogen content were analyzed essentially as described (Sun et al., Mol. Ther., 2005, 11:889-898; Sun et al., Mol. Ther., 2005, 11: 57-65). Rotarod testing was performed essentially as described (Sun, B. D. et al. 2005). Western blotting of hGAA was performed essentially as described (Amalfitano et al., Proc. Natl. Acad. Sci. USA, 1999, 96: 8861-8866) using the hGAA monoclonal antibody (courtesy of Genzyme Corp., Framingham, Mass.) and the CI-MPR antibody (catalog number GTX28093; Gene Tex, Irvine, Calif.).
Based upon the implication that CI-MPR expression was crucial to both uptake and intracellular processing of GAA in Pompe disease, levels of CI-MPR in GAA-KO mice were manipulated. A related but distinct strategy for addressing the apparently limiting role of CI-MPR expression in achieving efficacy with ERT in Pompe disease involved enhancement of rhGAA glycosylation (Raben et al., Mol. Genet. Metab., 2003, 80: 159-169; Raben et al., Transgenic Res., 2003, 12: 171-178; McVie-Wylie et al., Mol. Genet. Metab., 2008, 94: 448-455). […] The vector-transduced liver depot was enhanced by the addition of a drug, clenbuterol, which increases the expression of CI-MPR in muscle (Matsumoto et al., Arch. Oral Biol., 2006 51:603-611). The liver was transduced by administering AAV-LSPhGAA (2×10^10 vector particles) to groups of 3 month-old male GAA-KO mice, and clenbuterol (30 μg/ml) was administered to groups of 3 month-old vector-injected and mock-injected male GAA-KO mice in drinking water.

GAA-KO mice [3] = assay: GAA activity in tissues, ERT plus clenbuterol; conditions: ERT plus clenbuterol v. ERT alone
Procedure: (§2) FIG. 8A-8C depicts increased GAA uptake and increased glycogen clearance in GAA-KO mice following clenbuterol treatment and ERT. […] GAA-KO mice were administered four weekly doses of rhGAA (20 mg/kg), and treated with clenbuterol (n=6) or untreated (n=5). […] Mean+/−standard deviation are shown. Statistically significant differences indicated (*=p<0.05; **=p<0.01).
as §1
(§3) The efficacy from gene therapy was increased by β2 agonist stimulation from clenbuterol treatment, and this benefit might be expected to affect ERT in Pompe disease, as well. Therefore, groups of 3 month-old GAA-KO mice were treated with four weekly doses of rhGAA (20 mg/kg), with or without concurrent clenbuterol treatment.

GAA-KO mice [4] = assay: Glycogen content in muscles, ERT plus clenbuterol or albuterol; conditions: for glycogen content for quadriceps: p<0.001; for Glycogen content: ERT plus clenbuterol v. ERT alone
Procedure: as §2
GAA-KO mice were treated with weekly rhGAA (20 mg/kg): with medium clenbuterol, […] (n=6), with low clenbuterol, 1.3 mg/ml (n=6), with albuterol 30 mg/ml (n=4), or without drug treatment (n=3). Drugs were administered in the drinking water. Mean+/−s.d. shown. Statistically significant differences indicated (*=p<0.05; **=p<0.01).
as §1, §3

[5] = test system: immune tolerant GAA-KO mice; assay: Rotarod testing, ERT plus β2 agonist (Example 6); conditions: after 4 weeks of treatment; clenbuterol 6 mg/l drinking water plus ERT v. ERT alone
Procedure: GAA-KO mice were administered four weekly doses of rhGAA (20 mg/kg), and treated with medium dose clenbuterol (n=7), albuterol (n=4) or untreated (n=6 or 3). […] Mean+/−standard deviation are shown. P values indicate statistically significant differences (lines).
Two β2 agonists were evaluated in combination with ERT, clenbuterol and albuterol. The dose of clenbuterol was reduced 5-fold from the concentration used in Example 4, to 6 mg/l in drinking water, while albuterol was evaluated at the higher dose (30 mg/l in drinking water). Groups of 3 month-old immune tolerant GAA-KO mice (Raben et al., Human Mol. Genet., 2001, 10:2039-2047) were treated with four weekly doses of rhGAA (20 mg/kg body weight), with or without concurrent β2 agonist treatment.
Mice were sacrificed 7 days after the last injection. Selected tissues were collected for GAA enzyme activity and glycogen content analyses. […] GAA activity and glycogen content analyses, Rotarod testing, and Western blot detection of CI-MPR was performed essentially as described (Koeberl et al., Mol. Genet. Metab., 2011, 103:107-112. Wire hang testing was performed with a 0.5 cm mesh hardware cloth fixed to an 8 by 10 inch frame. Mice were placed on the wire mesh, which was slowly inverted 6 inches over a cage containing paper bedding. The latency, or time until the mouse fell into the cage, was recorded.

CC(C)(C)NCC(O)c1cc(Cl)c(N)c(Cl)c1 (centres unmarked) [clenbuterol]
Rotarod latency increase (GAA-KO mice [1]; clenbuterol alone v. mock treatment, p=0.02): 26% | Rotarod latency increase (GAA-KO mice [1]; vector plus clenbuterol (30 μg/ml drinking water) v. vector alone, 4 weeks, p<2×10^−5): 75% | Glycogen content (GAA-KO mice [2]; EDL, p=0.002): reduced | Glycogen content (GAA-KO mice [2]; cerebellum, p=0.03): reduced | Glycogen content (GAA-KO mice [2]; cerebrum, p<5×10^−5): reduced | Glycogen content (GAA-KO mice [2]; diaphragm, p=0.04): reduced | Glycogen content (GAA-KO mice [2]; soleus, p=0.0006): reduced | GAA activity (GAA-KO mice [3]; gastrocnemius, p=0.04): significantly increased | GAA activity (GAA-KO mice [3]; liver, p<0.0001): significantly increased | GAA activity (GAA-KO mice [3]; spleen, p=0.002): significantly increased | glycogen content for quadriceps (GAA-KO mice [4]; ERT plus clenbuterol 1.3 μg/ml (Low) in drinking water): significantly reduced | glycogen content for quadriceps (GAA-KO mice [4]; ERT plus clenbuterol 6 μg/ml (Medium) in drinking water): significantly reduced | Glycogen content (GAA-KO mice [4]; diaphragm, p=0.0002): significantly reduced | glycogen clearance (GAA-KO mice [4]; gastrocnemius, ERT plus clenbuterol): absence of increased glycogen clearance | Glycogen content (GAA-KO mice [4]; quadriceps, p=0.00002): significantly reduced | Glycogen content (GAA-KO mice [4]; tibialis anterior, p=0.002): significantly reduced | Rotarod latency [5]: significantly increased
